Test results as given in patent publication US20100040706A1, “METHOD OF ANTI-AGEING COSMETIC CARE BY STIMULATION OF SURVIVIN EXPRESSION” (LVMH RECHERCHE, priority 2008, published 2010).

System: survivin
Test: Survivin ELISA assay on normal human keratinocyte cultures, related to total proteins (BCA)
Assay type: cell-based
Settings: forskolin 4 μg/ml (10 μM)
Description: The normal human keratinocytes are cultured in 75 cm^2 flasks, in an incubator at 37° C. under a humid atmosphere containing 5% CO2, in serum-free keratinocyte medium supplemented with EGF (Epidermal Growth Factor) and with BPE (Bovine Pituitary Extract) (KSFMc) (Gibco ref: 17005-034+37000-015). The cells are seeded (day D0) into 48-well microplates in a proportion of 50 000 cells in 500 μL of medium per well. After incubation for 24 hours (day D1), the cells have become adherent and the treatment step is then carried out. The seeding medium is removed and the treatment medium containing the ingredients to be evaluated at the various concentrations, or the excipient thereof (for example DMSO) in the same proportion, is then added to each culture well. A peak of survivin expression by the cells is observed after treatment for 16 hours. The wells are then rinsed with PBS. Half the wells of the microplate are used to lyse the keratinocytes and to assay the intracellular survivin. […] The total proteins are assayed using a BCA colorimetric test (reference: BC Assay Kit, Uptima Interchim), by measuring absorbance at 570 nm. […] After the enzyme reaction has been blocked with sulfuric acid, the survivin is quantified by measuring absorbance at 450 nm.

Compound: C=C[C@@]1(C)CC(=O)[C@]2(O)[C@@]3(C)[C@@H](O)CCC(C)(C)[C@@H]3[C@H](O)[C@H](OC(C)=O)[C@@]2(C)O1 [Forskolin, forskolin]
- % activation (16 h, solvent control = 100%): 147.9%
- Survivin (16 h treatment, normal human keratinocytes): 7.27 pg/mg proteins
